target: T1, human TLR7 (Homo sapiens, UniProt Q9NYK1); assay: Human TLR7 reporter assay (NF-kB-SEAP in HEK293 cells); assay type: cell-based; settings: HEK293 cells stably carrying human TLR7 plasmid and NF-kB-SEAP reporter plasmid; 20 hours culture; final concentration 1 nM-10 μM; absorbance 405 nm; read-out: Human TLR7 binding activity (EC50)
T1 construct: expressed in transfected cells; host or cells: HEK293 (hTLR7/seap-293), stably transfected
T1 sequence (Q9NYK1 27-1049): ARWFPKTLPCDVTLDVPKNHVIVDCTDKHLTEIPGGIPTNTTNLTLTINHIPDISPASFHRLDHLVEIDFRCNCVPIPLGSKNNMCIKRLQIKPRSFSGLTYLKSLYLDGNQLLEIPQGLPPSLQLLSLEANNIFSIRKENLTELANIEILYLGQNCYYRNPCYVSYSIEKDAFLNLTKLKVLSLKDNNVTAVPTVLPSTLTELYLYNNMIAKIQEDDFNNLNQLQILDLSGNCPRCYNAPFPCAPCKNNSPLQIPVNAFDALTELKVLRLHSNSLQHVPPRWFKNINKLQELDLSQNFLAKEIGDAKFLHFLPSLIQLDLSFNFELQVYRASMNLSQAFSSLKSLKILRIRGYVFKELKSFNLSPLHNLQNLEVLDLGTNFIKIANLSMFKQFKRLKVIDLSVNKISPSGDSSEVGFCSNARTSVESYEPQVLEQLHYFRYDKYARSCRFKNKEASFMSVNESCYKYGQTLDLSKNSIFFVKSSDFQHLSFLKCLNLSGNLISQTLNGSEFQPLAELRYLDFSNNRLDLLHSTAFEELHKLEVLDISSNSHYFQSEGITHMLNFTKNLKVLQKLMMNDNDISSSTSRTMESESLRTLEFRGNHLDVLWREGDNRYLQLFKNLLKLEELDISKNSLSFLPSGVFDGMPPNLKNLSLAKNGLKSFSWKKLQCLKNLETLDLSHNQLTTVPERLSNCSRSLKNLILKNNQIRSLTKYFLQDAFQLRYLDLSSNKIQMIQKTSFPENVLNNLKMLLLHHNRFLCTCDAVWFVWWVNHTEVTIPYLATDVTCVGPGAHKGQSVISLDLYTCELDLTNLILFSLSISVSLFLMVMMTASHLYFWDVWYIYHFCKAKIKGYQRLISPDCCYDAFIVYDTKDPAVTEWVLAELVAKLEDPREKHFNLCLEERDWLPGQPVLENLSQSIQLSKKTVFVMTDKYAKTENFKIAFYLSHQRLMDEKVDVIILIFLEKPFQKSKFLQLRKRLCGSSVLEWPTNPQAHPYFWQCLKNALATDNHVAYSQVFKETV
Procedure: Human TLR7 Reporter Assay
HEK293 cells in which human TLR7 or rat TLR7 plasmid and reporter plasmid (NF-kB-SEAP) are stably introduced are dispersed in DMEM broth (10% FBS, 1% NEAA, 10 ug/mL blastocidin S HCl, 100 ug/mL Zeocin), and were seeded to 96 well plate per 90 μl/well (hTLR7/seap-293:20000 cells/well, rTLR7/seap-293:25000 cells/well).
Test compound (DMSO stock solution (2 μl) was diluted with the broth (200 μl) by 100 times) was added to the seeded cells to a 96 well plate (10 μl/well) (final concentration; 1 nM-10 μM, common ratio 3). After stirring by tapping side of the plate, the cells were cultured in a CO2 incubator for 20 hours. A substrate (50 μl/well) for reporter assay (substrate for SEAP, pNPP) was added to cells stimulated by test sample. Ten minutes after adding the substrate, the reaction quenching solution (4N NaOH) was added by 50 μl/well to cease enzymatic reaction. Sealing a top seal A on the plate, the absorbance was measured by a micro plate reader (405 nm).

Question: With `CCCCOc1nc(N)c2[nH]c(=O)n(CCCCCN3CCC(C(=O)OC)CC3)c2n1` [Example 1, 2-Butoxy-7,8-dihydro-9-[5-(4-methoxycarbonylpiperidin-1-yl)pentyl]-8-oxoadenine] as the compound, how does the EC50 read?
Answer: Its EC50 is 145 nM.

Question: Which EC50 does the source give for `CCCCOc1nc(N)c2[nH]c(=O)n(CCCCCN3CCCC(CC(=O)OC)C3)c2n1` (stereo not drawn) [Example 3, 2-Butoxy-7,8-dihydro-9-[5-(3-methoxycarbonylmethylpiperidin-1-yl)pentyl]-8-oxoadenine] here?
Answer: Its EC50 is 571 nM.

Question: How did the EC50 turn out when `CCCCOc1nc(N)c2[nH]c(=O)n(CCN3CCCC(C(=O)OC)C3)c2n1` (stereo not drawn) [Example 5, 2-Butoxy-7,8-dihydro-9-[2-(3-methoxycarbonylpiperidin-1-yl)ethyl]-8-oxoadenine] was run?
Answer: The EC50 was 807 nM.

Question: `CCCCOc1nc(N)c2[nH]c(=O)n(CCN3CCN(CCC(=O)OC)CC3)c2n1` [Example 7, 2-Butoxy-7,8-dihydro-9-[2-{4-(2-methoxycarbonylethyl)piperazin-1-yl}ethyl]-8-oxoadenine] was tested. Which EC50 did it give?
Answer: The EC50 was 4790 nM.

Question: `CCCCOc1nc(N)c2[nH]c(=O)n(CCCN3CCC(C(=O)OC)CC3)c2n1` [Example 8, 2-Butoxy-7,8-dihydro-9-[3-(4-methoxycarbonylpiperidin-1-yl)propyl]-8-oxoadenine] was tested. Which EC50 did it give?
Answer: The EC50 was 1230 nM.

Question: For `CCCCOc1nc(N)c2[nH]c(=O)n(CCCN3CCCC(C(=O)OC)C3)c2n1` (stereo not drawn) [Example 9, 2-Butoxy-7,8-dihydro-9-[3-(3-methoxycarbonylpiperidin-1-yl)propyl]-8-oxoadenine], which EC50 is on record?
Answer: Its EC50 is 989 nM.

Question: Which EC50 does the source give for `CCCCOc1nc(N)c2[nH]c(=O)n(CCCN3CCC(CC(=O)OC)CC3)c2n1` [Example 11, 2-Butoxy-7,8-dihydro-9-{3-[4-(2-methoxy-2-oxoethyl)piperidin-1-yl]propyl}-8-oxoadenine] here?
Answer: Its EC50 is 3240 nM.

Question: How did the EC50 turn out when `CCCCOc1nc(N)c2[nH]c(=O)n(CCCN3CCCC(CC(=O)OC)C3)c2n1` (stereo not drawn) [Example 12, 2-Butoxy-7,8-dihydro-9-{3-[3-(2-methoxy-2-oxoethyl)piperidin-1-yl]propyl}-8-oxoadenine] was run?
Answer: Its EC50 is 1610 nM.

Question: `CCCCOc1nc(N)c2[nH]c(=O)n(CCCCCCN3CCC(C(=O)OC)CC3)c2n1` [Example 15, 2-Butoxy-7,8-dihydro-9-[6-(4-methoxycarbonylpiperidin-1-yl)hexyl]-8-oxoadenine] was tested. Which EC50 did it give?
Answer: The EC50 was 95.2 nM.

Question: For `CCCCOc1nc(N)c2[nH]c(=O)n(CCCCCCCN3CCC(C(=O)OC)CC3)c2n1` [Example 16], which EC50 is on record?
Answer: Its EC50 is 145 nM.

Question: For `CCCCOc1nc(N)c2[nH]c(=O)n(CCCCCCCCN3CCC(C(=O)OC)CC3)c2n1` [Example 17, 2-Butoxy-7,8-dihydro-9-[8-(4-methoxycarbonylpiperidin-1-yl)octyl]-8-oxoadenine], which EC50 is on record?
Answer: The EC50 was 148 nM.

Question: How did the EC50 turn out when `CCCCOc1nc(N)c2[nH]c(=O)n(CCCCN3CCCC(C(=O)OC)C3)c2n1` (stereo not drawn) [Example 19, 2-Butoxy-7,8-dihydro-9-[4-(3-methoxycarbonylpiperidin-1-yl)butyl]-8-oxoadenine] was run?
Answer: Its EC50 is 631 nM.
